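Results reflect a 48-hour exposure of cells in 96-well plates to compound at five concentrations. TGI marks complete inhibition of growth.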
Each molecule was assayed on U251 CNS (assay: NCI anticancer screen, dose series, 48 h).

| Structure (SMILES) | TGI |
| --- | --- |
| O=[N+]([O-])c1ccc2[nH]c(=S)[nH]c(=S)c2c1 | > 100 µM |

The molecules below were run on SK-MEL-28 melanoma (assay: NCI anticancer screen, dose series, 48 h).

| Structure (SMILES) | TGI |
| --- | --- |
| O=[N+]([O-])C[C@@]12O[C@]3(O)C4C5CC(C6C5C3C61)C42 (some centres not stated) | > 100 µM |
| O=C1C2SC34c5c2c2ccccc2n5CCC3CCCN14 (configuration not stated) | > 100 µM |
| CCCC(=O)NC(NC1CCCCC1)(C(=O)OCC)C(F)(F)F (configuration not stated) | > 100 µM |
| O=C(/C=C/c1ccccc1)Oc1cccc(O)c1 | 66.8 µM |
| Cc1c2n(c(=O)[nH]c1=O)C1OC(CO)C(O2)C1O (configuration not stated) | > 100 µM |
| COc1cccc(C(=O)Oc2ccc(OS(=O)(=O)c3ccc(C)cc3)cc2)c1C#N | > 100 µM |
| CC1(C)/C(=N\NC(N)=O)C2CCC1C2 (configuration not stated) | > 100 µM |
| Cc1ccc(C2SCC(=O)N2c2ccc(-n3c(-c4ccccc4)nc4ccccc4c3=O)cc2)cc1 (configuration not stated) | > 100 µM |
| CC1(C)[C@@H](Cn2ccc(=O)[nH]c2=O)CC[C@@]1(C)CO | > 100 µM |
| CC(C)C1=CC23CCC4C(C)(C(=O)O)CCCC4(C)C2CC1C1C(=O)N(c2ccc(Cc4ccc(N5C(=O)C6C7CC8C9(C)CCCC(C)(C(=O)O)C9CCC8(C=C7C(C)C)C6C5=O)cc4)cc2)C(=O)C13 (configuration not stated) | 24.9 µM |
| Cn1c(=O)c2c(ncn2CCNC(CO)C(O)c2ccc([N+](=O)[O-])cc2)n(C)c1=O (configuration not stated) | > 100 µM |
| CCCNC(=O)NNC(=O)c1c[nH]c2nc(C)ccc2c1=O | > 100 µM |
| C=CCCON(C(=O)OC(C)(C)C)C(C)(C)C | > 100 µM |
| CCOC(=O)Nc1[nH]cc(-c2ccccc2)c1C#N | > 100 µM |
| [N-]=[N+]=NC1(Cc2ccccc2)C(=O)c2cccc3c2N(CCC3)C1=O (configuration not stated) | > 100 µM |
| NC(N)=NS(=O)(=O)c1ccc(NNc2c3ccccc3nc3c(C(=O)Nc4ccc(S(=O)(=O)Nc5ncccn5)cc4)cccc23)cc1 | > 100 µM |
| O=c1oc2ccccc2cc1-c1cc2ccccn2c1 | > 100 µM |
| COC(=O)c1c(O)ccc2c1c1c(n2Cc2cc(OC)cc(OC)c2)C(=O)c2ccccc2C1 | 60.9 µM |
| COC[C@@H](N=CC(C)(C)C)C(C)C | > 100 µM |
| NC(N)=NCCN1CC2CCC(CC2)C1 | > 100 µM |
| O=C1COc2cccnc2N1CCCCO | > 100 µM |
| O=[N+]([O-])c1cccc(C2=NN(c3ccccc3)C[N+](c3ccc(Br)cc3)=N2)c1 | > 100 µM |
| O=C(O)CCCc1nc2c(n1Cc1ccccc1)C(=O)c1ccccc1C2=O | > 100 µM |
| CCOC(=O)NC(Nc1ccc(C)cc1)(C(F)(F)F)C(F)(F)F | > 100 µM |
| [N-]=[N+]=Nc1c([N+](=O)[O-])c(=O)n(-c2ccccc2)c2ccccc12 | 80.5 µM |
| O=[N+]([O-])c1ccc2[nH]c(=S)[nH]c(=S)c2c1 | > 100 µM |

The molecules below were run on RPMI-8226 leukemia (assay: NCI anticancer screen, dose series, 48 h).

| Structure (SMILES) | TGI |
| --- | --- |
| O=[N+]([O-])C[C@@]12O[C@]3(O)C4C5CC(C6C5C3C61)C42 (some centres not stated) | > 100 µM |
| O=C1C2SC34c5c2c2ccccc2n5CCC3CCCN14 (configuration not stated) | > 100 µM |
| CCCC(=O)NC(NC1CCCCC1)(C(=O)OCC)C(F)(F)F (configuration not stated) | > 100 µM |
| O=C(/C=C/c1ccccc1)Oc1cccc(O)c1 | > 100 µM |
| Cc1c2n(c(=O)[nH]c1=O)C1OC(CO)C(O2)C1O (configuration not stated) | > 100 µM |
| COc1cccc(C(=O)Oc2ccc(OS(=O)(=O)c3ccc(C)cc3)cc2)c1C#N | > 100 µM |
| CC1(C)/C(=N\NC(N)=O)C2CCC1C2 (configuration not stated) | > 100 µM |
| Cc1ccc(C2SCC(=O)N2c2ccc(-n3c(-c4ccccc4)nc4ccccc4c3=O)cc2)cc1 (configuration not stated) | 55.1 µM |
| CC(C)C1=CC23CCC4C(C)(C(=O)O)CCCC4(C)C2CC1C1C(=O)N(c2ccc(Cc4ccc(N5C(=O)C6C7CC8C9(C)CCCC(C)(C(=O)O)C9CCC8(C=C7C(C)C)C6C5=O)cc4)cc2)C(=O)C13 (configuration not stated) | > 100 µM |
| Cn1c(=O)c2c(ncn2CCNC(CO)C(O)c2ccc([N+](=O)[O-])cc2)n(C)c1=O (configuration not stated) | > 100 µM |
| CCCNC(=O)NNC(=O)c1c[nH]c2nc(C)ccc2c1=O | > 100 µM |
| C=CCCON(C(=O)OC(C)(C)C)C(C)(C)C | > 100 µM |
| CCOC(=O)Nc1[nH]cc(-c2ccccc2)c1C#N | > 100 µM |
| [N-]=[N+]=NC1(Cc2ccccc2)C(=O)c2cccc3c2N(CCC3)C1=O (configuration not stated) | > 100 µM |
| NC(N)=NS(=O)(=O)c1ccc(NNc2c3ccccc3nc3c(C(=O)Nc4ccc(S(=O)(=O)Nc5ncccn5)cc4)cccc23)cc1 | > 100 µM |
| O=c1oc2ccccc2cc1-c1cc2ccccn2c1 | > 100 µM |
| COC(=O)c1c(O)ccc2c1c1c(n2Cc2cc(OC)cc(OC)c2)C(=O)c2ccccc2C1 | 36.2 µM |
| COC[C@@H](N=CC(C)(C)C)C(C)C | > 100 µM |
| NC(N)=NCCN1CC2CCC(CC2)C1 | > 100 µM |
| O=C1COc2cccnc2N1CCCCO | > 100 µM |
| O=[N+]([O-])c1cccc(C2=NN(c3ccccc3)C[N+](c3ccc(Br)cc3)=N2)c1 | > 100 µM |
| O=C(O)CCCc1nc2c(n1Cc1ccccc1)C(=O)c1ccccc1C2=O | 68.8 µM |
| CCOC(=O)NC(Nc1ccc(C)cc1)(C(F)(F)F)C(F)(F)F | > 100 µM |
| [N-]=[N+]=Nc1c([N+](=O)[O-])c(=O)n(-c2ccccc2)c2ccccc12 | 56.2 µM |
| O=[N+]([O-])c1ccc2[nH]c(=S)[nH]c(=S)c2c1 | > 100 µM |

The molecules below were run on IGROV1 ovarian (assay: NCI anticancer screen, dose series, 48 h).

| Structure (SMILES) | TGI |
| --- | --- |
| O=[N+]([O-])C[C@@]12O[C@]3(O)C4C5CC(C6C5C3C61)C42 (some centres not stated) | > 100 µM |
| O=C1C2SC34c5c2c2ccccc2n5CCC3CCCN14 (configuration not stated) | > 100 µM |
| CCCC(=O)NC(NC1CCCCC1)(C(=O)OCC)C(F)(F)F (configuration not stated) | > 100 µM |
| O=C(/C=C/c1ccccc1)Oc1cccc(O)c1 | 43.6 µM |
| Cc1c2n(c(=O)[nH]c1=O)C1OC(CO)C(O2)C1O (configuration not stated) | > 100 µM |

Reference: PubChem BioAssay (NCI)
